± gives the expanded uncertainty stated by the source.
Assay: Molar enthalpy of transition or fusion
Conditions: Crystal; DSC

O.O.O.O.O.O.[Br-].[Br-].[Ca+2] [calcium bromide hexahydrate]
Molar enthalpy of transition or fusion: 10.5 ± 0.22 kcal/mol
